“Also recorded” adds a separate entry of the source. Like-named read-outs stand apart in the source and are kept apart here.

Data on 1 molecule can be found in patent US10028960B2, “Pyrimidine compounds as JAK kinase inhibitors” (THERAVANCE BIOPHARMA R&D IP, LLC, priority 2016, dated 2018).

Data set [1] has as its system mouse splenic NK, B and T cells. The conditions noted are these: in vivo, po. As for the experimental part: Depletion of mouse splenic cells is an experimental model of immunosuppression (Kudlacz et al., Am. J. of Transplantation, 2004, 4, 51-57). The compound of Example 2 was assessed in the mouse splenic cell model following the same treatment paradigm as that used in the oxazolone-induced colitis model (Assay 8).
The compound (1, 10 and 100 mg/kg, BID) and tofacitinib (30 and 60 mg/kg, BID) as a positive control were dosed orally for three days to naïve mice. Spleens were harvested 1 h post last dose and crushed immediately for cell subtype staining. Prior to fixation, fluorophore-labelled antibodies for CD19 (FITC; B cells), CD3e (PE; pan T cells) and DX5 (APC; NK cells) were incubated with splenocyte samples from each animal to allow for simultaneous, multiple subtype % analysis on the flow cytometer. The number of total spleen cells for each animal was measured by Scepter™ 2.0 Handheld Automated Cell Counter.
The absolute number of lymphocyte subtype population (e.g., splenic B, T and NK cells) was calculated from the percentage of each subtype times total spleen cells for each animal. A one way ANOVA, with Dunnett's post hoc test, was used to compare the splenic lymphocytes number of the vehicle and test compound groups. The a level was set at p<0.05. Data were presented as the mean±SEM for each group.

For the next data set, the target named is JAK3 (Homo sapiens (Human), UniProt P52333). Nature of the data set: LanthaScreen JAK biochemical assay, JAK3. The conditions noted are these: read-out: JAK 3 (pKi) (converted). As to the method:
(§1) A panel of four LanthaScreen JAK biochemical assays (JAK1, 2, 3 and Tyk2) were carried in a common kinase reaction buffer (50 mM HEPES, pH 7.5, 0.01% Brij-35, 10 mM MgCl2, and 1 mM EGTA). Recombinant GST-tagged JAK enzymes and a GFP-tagged STAT1 peptide substrate were obtained from Life Technologies.
In general terms: In TR-FRET formats the signal depends on donor and acceptor labels being close together.

A further data set deals with JAK1 (Homo sapiens (Human), UniProt P23458). Nature of the data set: LanthaScreen JAK biochemical assay, JAK1. As for the experimental part:
as §1

The nature of another data set: in vivo. The conditions noted are these: Sprague Dawley, rat, po.
In data set [2] the test system is TPA-induced increase in ear thickness. In words: Topical TPA-induced irritant contact dermatitis model in mice. The format is in vivo, Balb/c mice. The conditions noted are these: mouse ear, 6 hours after TPA. As to the method:
The objective of this assay is to assess the anti-inflammatory effect in a model of acute dermatitis of test compounds being studied for cutaneous inflammatory conditions such as atopic dermatitis (Dong et al., J Pharmacol Exp Ther, 2013, 344, 436-446).
Topical dermal application of phorbol ester 12-O-tetradecanoylphorbol-13-acetate (TPA) in mice causes an inflammatory response that is characterized by edema and neutrophil influx at the early phase (2-24 h) and by epidermal cell proliferation at the later phase (24-48 h) (Griffiths et al., Agents and Actions, 1988, 25, 344-351). Female Balb/c mice were topically administered with either vehicle (1:7 DMSO:acetone) or 20 μL of a solution of TPA (2.5 μg) in vehicle on each ear. At 30 min before and 15 min after TPA administration, either vehicle or the compound of Example 2 at doses of 30, 100, 300, 1000, and 3000 μg in vehicle was applied topically to each ear. The degree of inflammation was assessed as the change in ear thickness at 6 hours after TPA application.

The test system of data set [3] is IFNγ stimulated STAT1 phosphorylation in CD14+ monocytes. Nature of the data set: Cellular JAK potency assay: inhibition of IFNγ-induced pSTAT1. The format is cell-based. The conditions noted are these: Homo sapiens, Monocyte. As to the method:
The potency of test compounds for inhibition of interferon gamma (IFNγ) stimulated STAT1 phosphorylation was measured in CD14-positive (CD14+) monocytes derived from human whole blood (Stanford Blood Center) using flow cytometry. Because IFNγ signals through JAK, this assay provides a measure of JAK cellular potency.
Monocytes were identified using a fluorescein isothiocyanate (FITC) conjugated anti-CD14 antibody (Clone RM052, Beckman Coulter), and an Alexa Fluor 647 conjugated anti-pSTAT1 antibody (pY701, Clone 4a, BD Biosciences) was used to detect STAT1 phosphorylation.
Human peripheral blood mononuclear cells (PBMC) were isolated from human whole blood of healthy donors using a ficoll gradient. […] Cells were washed twice with FACS buffer, and then resuspended in 1:10 anti-pSTAT1 Alexa Fluor 647:FACS buffer (100 μL) for 30 min at RT in the dark, washed twice in FACS buffer, and analyzed using a LSRII flow cytometer (BD Biosciences).
To determine the inhibitory potency of test compounds, the median fluorescent intensity (MFI) of pSTAT1 was measured in CD14+ monocytes. IC50 values were determined from analysis of the inhibition curves of MFI vs compound concentration. Data are expressed as pIC50 (negative decadic logarithm IC50) values (mean±standard deviation).

Chain of JAK1 (P23458 whole entry): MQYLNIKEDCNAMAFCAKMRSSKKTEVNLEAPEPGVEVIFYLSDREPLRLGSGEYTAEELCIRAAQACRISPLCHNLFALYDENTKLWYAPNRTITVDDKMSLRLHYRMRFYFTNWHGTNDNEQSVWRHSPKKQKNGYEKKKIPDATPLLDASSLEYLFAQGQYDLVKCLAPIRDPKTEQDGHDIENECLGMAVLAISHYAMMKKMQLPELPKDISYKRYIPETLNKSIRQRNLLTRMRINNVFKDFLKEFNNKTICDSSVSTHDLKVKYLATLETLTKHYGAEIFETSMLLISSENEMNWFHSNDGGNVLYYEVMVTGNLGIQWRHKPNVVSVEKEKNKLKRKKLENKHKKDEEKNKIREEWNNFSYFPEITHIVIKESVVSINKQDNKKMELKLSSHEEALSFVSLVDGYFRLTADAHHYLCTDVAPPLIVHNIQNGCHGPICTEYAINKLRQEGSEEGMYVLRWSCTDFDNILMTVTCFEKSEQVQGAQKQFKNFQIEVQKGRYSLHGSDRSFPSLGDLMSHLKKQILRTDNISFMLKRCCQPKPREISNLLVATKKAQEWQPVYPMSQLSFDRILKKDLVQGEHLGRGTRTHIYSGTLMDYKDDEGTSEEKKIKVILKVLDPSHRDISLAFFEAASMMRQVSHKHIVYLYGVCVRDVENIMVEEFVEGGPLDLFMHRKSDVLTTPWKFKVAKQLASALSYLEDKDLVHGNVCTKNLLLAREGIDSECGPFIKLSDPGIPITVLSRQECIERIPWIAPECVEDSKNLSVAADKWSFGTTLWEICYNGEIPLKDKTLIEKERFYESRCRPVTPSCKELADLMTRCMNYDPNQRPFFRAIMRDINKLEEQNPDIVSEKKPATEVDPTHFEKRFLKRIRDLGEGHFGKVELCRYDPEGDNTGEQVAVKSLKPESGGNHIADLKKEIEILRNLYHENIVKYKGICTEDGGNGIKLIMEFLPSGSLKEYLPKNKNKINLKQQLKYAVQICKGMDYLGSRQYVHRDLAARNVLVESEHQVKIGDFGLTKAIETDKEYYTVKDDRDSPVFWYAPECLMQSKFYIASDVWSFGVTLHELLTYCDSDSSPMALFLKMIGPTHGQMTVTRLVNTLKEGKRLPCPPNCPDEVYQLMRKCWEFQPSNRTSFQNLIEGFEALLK
Chain of JAK3 (P52333 whole entry): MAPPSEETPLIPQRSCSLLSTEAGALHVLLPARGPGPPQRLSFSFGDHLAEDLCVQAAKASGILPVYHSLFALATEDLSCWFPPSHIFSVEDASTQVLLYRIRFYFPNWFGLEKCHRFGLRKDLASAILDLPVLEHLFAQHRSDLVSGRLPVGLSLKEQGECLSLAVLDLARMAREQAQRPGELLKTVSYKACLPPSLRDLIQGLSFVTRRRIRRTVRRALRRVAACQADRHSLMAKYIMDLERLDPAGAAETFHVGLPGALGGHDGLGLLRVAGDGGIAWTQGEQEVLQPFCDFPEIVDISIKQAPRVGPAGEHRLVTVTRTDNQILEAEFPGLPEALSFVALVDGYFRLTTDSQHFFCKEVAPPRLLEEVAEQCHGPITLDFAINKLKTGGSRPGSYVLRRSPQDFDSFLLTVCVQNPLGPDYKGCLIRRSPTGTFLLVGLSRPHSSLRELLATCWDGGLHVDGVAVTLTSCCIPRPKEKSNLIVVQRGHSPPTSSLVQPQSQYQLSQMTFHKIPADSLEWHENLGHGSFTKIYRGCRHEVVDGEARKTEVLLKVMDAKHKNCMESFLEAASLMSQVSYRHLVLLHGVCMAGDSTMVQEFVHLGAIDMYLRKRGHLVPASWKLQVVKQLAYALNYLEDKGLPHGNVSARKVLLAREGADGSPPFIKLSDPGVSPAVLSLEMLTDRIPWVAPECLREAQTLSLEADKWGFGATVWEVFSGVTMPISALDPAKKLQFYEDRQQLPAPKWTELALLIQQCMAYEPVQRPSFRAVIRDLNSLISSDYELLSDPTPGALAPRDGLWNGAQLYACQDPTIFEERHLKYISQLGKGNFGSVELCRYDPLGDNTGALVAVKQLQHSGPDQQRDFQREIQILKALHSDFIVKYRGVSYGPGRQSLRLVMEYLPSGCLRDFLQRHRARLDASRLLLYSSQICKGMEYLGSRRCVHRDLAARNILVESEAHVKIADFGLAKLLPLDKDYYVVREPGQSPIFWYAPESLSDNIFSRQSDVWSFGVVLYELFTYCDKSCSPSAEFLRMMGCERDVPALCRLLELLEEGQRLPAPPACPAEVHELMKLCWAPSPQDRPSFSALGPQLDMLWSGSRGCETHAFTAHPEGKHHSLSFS
Experimental for in vivo: The test compound was formulated in 0.5% methyl-cellulose in water and dosed via oral gavage at 3.2 mg/kg and 100 mg/kg to Sprague Dawley rats. At various time points (typically 0.5, 1, 3, 6, 24 hr) post dosing, blood samples were removed via cardiac puncture and intact colons were excised from the rats. Blood samples were centrifuged at 1500×g for 15 min to collect plasma. Colons were washed with ice cold phosphate buffered saline (PBS), weighed, and homogenized at a dilution of 1:10 in PBS. Plasma and colon levels of test compound were determined by LC-MS analysis against analytical standards constructed into a standard curve in the test matrix. A colon to plasma ratio was determined as the ratio of the colon AUC to the plasma AUC in μg hr/g.

For `COc1cc(Nc2cc(CO)[nH]n2)nc(N(C)[C@@H]2C[C@H]3CCC[C@@H](C2)N3S(=O)(=O)N2CC(C#N)C2)n1` [Example 2, 1-(((1R,3s,5S)-3-((4-((5-(Hydroxymethyl)-1H-pyrazol-3-yl)amino)-6-methoxypyrimidin-2-yl)(methyl)amino)-9-azabicyclo[3.3.1]nonan-9-yl)sulfonyl)azetidine-3-carbonitrile], in data set [1], the “treatment effect on B and T cell populations” value is listed as “No treatment effect”. Besides, the Ki on JAK3 was 0.1 to 1 nM. Moreover, at JAK1, the “JAK 1 (pKi)” value is reported as “A (A represents a pKi value≥10 (Ki≤0.1 nM))”. The Kp in the data set “in vivo” (5 mg/kg) was greater than 250; in “in vivo” (100 mg/kg), greater than 1200. Moreover, the “inhibition of TPA-induced increase in ear thickness (in words)” value in data set [2] (topical 30-3000 μg) is “dose- and concentration-dependent effect; also recorded: dose- and concentration-dependent inhibition”. Moreover, the “maximum statistically significant inhibition of TPA-induced increase in ear thickness” value in data set [2] (topical, 1000 μg dose) came to 41%. Moreover, the IC50 is roughly 25.1 nM in data set [3] (IFNγ-induced pSTAT1, CD14+ monocytes, read-out: pIC50 value (converted)) and no more than 50 nM in data set [3] (cellular assay, Assay 5, read-out: IC50 for inhibition of IFNγ).
